According to patent publication US4740501A (priority 1985, dated 1988):
pIC50: −log10 of the molar value. Like-named read-outs stand apart in the source and are kept apart here.

Legend:
L-1210 leukemia cells = test: Bioassay of tumorigenicity of in vitro treated tumor cells in syngeneic hosts; format: in vivo; details: BDf1 mice surviving 45 days
L1210 leukemia = test: cells; format: cell-based, mice
B-95-8 B-lymphoma = test: Tumor cell survival (trypan blue), continuous exposure; format: cell-based, Marmorset
Raji B-lymphoma = test: as above; format: cell-based, Human
MJY-alpha monolayers = test: Incorporation of radiolabeled precursors; format: cell-based
Procedure: The metabolism of treated MJY-alpha mammary tumor cell cultures were screened by monitoring the uptake and incorporation of 3H-uridine, 3H-thymidine, and 35S-methionine. Cultures were treated as described and given radiolabeled precursors in treatment medium at 0-24 for 24 to 48 hours during the treatment periods.
Levels of radioactivity incorporated into the cells were determined following harvesting of the cells on glass filters using a Mash II cell harvester. Each sample was examined in quadruplicate.
In addition to determining cellular viability by trypan blue exclusion, the levels of metabolic activity of PTT.119-treated cells were compared to solvent-treated and untreated controls. Confluent MJY-alpha monolayers were again processed as previously described and […], […], ^3 H-thymidine, and ^35 S-methionine incorporation quantitated during the 24 and 48 hour treatment periods. Following 24 hour tripeptide treatment, the only parameter that was substantially depressed compared to control cultures was the incorporation of ^35 S-radioactivity into cells treated with 15 uM PTT.119 (Table 10).

L1210DDP = test: cells; format: cell-based
MMTV proteins = test: Intracellular MMTV polypeptides (immune precipitation, NaDodSO4-PAGE); format: cell-based, mouse; details: for activity at 15 µM: Mus musculus, control 100, read-out: Relative level of MMTV-associated radioactivity (%): Total MMTV Protein
Procedure: Intracellular MMTV proteins were identified in monolayer cells after 24 or 48 hour exposure to 15 uM PTT.119. Cultures were labeled with 25 uCi/ml of (^3 H)-leucine for the first 24 hours and were then doubly labeled with (^35 S)-methionine when the spent media were replenished. The relative rates of MMTV polypeptide synthesis were determined using parallel cultures continuously-treated with PTT.119 and pulse labeled for 15 minutes with ^35 S-methionine. Following labeling, the cells were washed twice in cold 0.01M phosphate-buffered saline, pH 7.5, and a solution of protease inhibitors added to yield a final concentration of 1 uM pepstatin, 10 ug soybean trypsin inhibitor/ml, and 1 mM N-ethyl maleimide. Cells were then disrupted in 0.05M phosphate buffer containing 0.1M NaCl and 0.1% Triton X-100, pH 7.5 (Pi/NaCl/Triton). Cells were scraped from the substrate and lysis completed by passing the suspensions through a 27 gauge needle five times. Nuclei were removed by centrifugation at 600×g for 10 minutes at 4° C. and 100 ul aliquots of the supernatants mixed with 10 ul preimmune rabbit sera and 50 ul of 10% […] formalin-fixed and heat-killed.
Following a 15 minute incubation at 26° C., the Staphlococcus aureus (Cowan strain) immunoabsorbent was removed by centrifugation at 10,000×g for 1 minute in a Beckman microfuge. Supernatants (100 ul) were sequentially incubated at 26° C. with 33 ul of rabbit anti-MMTV antisera for 25 minutes and 150 ul of 10% S. aureus for 15 minutes. S. aureus was then pelleted and the precipitate washed five times in Pi/NaCl/Triton. Samples were finally resuspended in 20 ul of 1% NaDodSO4 /2-mercaptoethanol, heated for 1 minute at 100° C. to release MMTV proteins, and centrifuged to remove S. aureus. Supernatants were then subjected to NaDodSO4 -PAGE. Samples were disrupted in 1% NaDodSO4 and 1% B-mercaptoethanol at 100° C. for 1 minute electrophoresed on 10-20% polyacrylamide gradient slab gels using a discontinuous buffer system. Electrophoresis of immune precipitates from cell lysates was carried out in a similar manner using 7.5-15% polyacrylamide gradients. Mr of MMTV-related polypeptides were determined by coelectrophoresis of [^14 C]-protein standards (Mr 30,000 to 50,000 Da; New England Nuclear). Radioactivity was determined and the levels associated with MMTV polypeptide peaks quantitated using a generalized curve-fit computer program.

## CCOC(=O)[C@H](CCSC)NC(=O)[C@H](Cc1cccc(N(CCCl)CCCl)c1)NC(=O)[C@@H](N)Cc1ccc(F)cc1.Cl [PTT.119, 3-(p-fluorophenyl)-L-alanyl-3-[m-bis(2-chloroethyl)aminophenyl]-L-alanyl-L-methionine ethyl ester hydrochloride]
L-1210 leukemia cells
  protection of surviving hosts against second graft of 1000 untreated L-1210 cells: did not confer protection
L1210 leukemia
  T.C.D.100: 37.5
  elimination of viable population: completely eliminated the viable population
  surviving fraction at end of examination period: 15%
L1210 leukemia; 3.75 µM
  percentage of viable cells: 40-50%
L1210 leukemia; Mus musculus, L1210, 24 h, read-out: T.C.D.50
  pIC50: 5.05
B-95-8 B-lymphoma; 10 ug/ml, 1 hr
  % tumor cell survival: 100%
B-95-8 B-lymphoma; 10 ug/ml, 4 hr
  % tumor cell survival: 100%
B-95-8 B-lymphoma; 10 ug/ml, 24 hr
  % tumor cell survival: 40%
B-95-8 B-lymphoma; 25 ug/ml, 1 hr
  % tumor cell survival: 100%
B-95-8 B-lymphoma; 25 ug/ml, 4 hr
  % tumor cell survival: 86%
B-95-8 B-lymphoma; 25 ug/ml, 8 hr
  % tumor cell survival: 49%
B-95-8 B-lymphoma; 25 ug/ml, 24 hr
  % tumor cell survival: 20%
B-95-8 B-lymphoma; 50 ug/ml, 1 hr
  % tumor cell survival: 77%
B-95-8 B-lymphoma; 50 ug/ml, 4 hr
  % tumor cell survival: 42%
B-95-8 B-lymphoma; 50 ug/ml, 8 hr
  % tumor cell survival: 26%
B-95-8 B-lymphoma; 50 ug/ml, 24 hr
  % tumor cell survival: 6%
Raji B-lymphoma; 10 ug/ml, 1 hr
  % tumor cell survival: 98%
Raji B-lymphoma; 10 ug/ml, 4 hr
  % tumor cell survival: 98%
Raji B-lymphoma; 10 ug/ml, 24 hr
  % tumor cell survival: 82%
Raji B-lymphoma; 25 ug/ml, 1 hr
  % tumor cell survival: 100%
Raji B-lymphoma; 25 ug/ml, 4 hr
  % tumor cell survival: 97%
Raji B-lymphoma; 25 ug/ml, 8 hr
  % tumor cell survival: 97%
Raji B-lymphoma; 25 ug/ml, 24 hr
  % tumor cell survival: 35%
Raji B-lymphoma; 50 ug/ml, 1 hr
  % tumor cell survival: 94%
Raji B-lymphoma; 50 ug/ml, 4 hr
  % tumor cell survival: 90%
Raji B-lymphoma; 50 ug/ml, 8 hr
  % tumor cell survival: 76%
Raji B-lymphoma; 50 ug/ml, 24 hr
  % tumor cell survival: 20%
MJY-alpha monolayers; 1.5 uM, 24 hours, 3H-thy
  Relative level of incorporation of radiolabels (%): 91.2%
MJY-alpha monolayers; 1.5 uM, 24 hours, 3H-ur
  Relative level of incorporation of radiolabels (%): 90.9%
MJY-alpha monolayers; 1.5 uM, 24 hours, 35S-met
  Relative level of incorporation of radiolabels (%): 103.3%
MJY-alpha monolayers; 1.5 uM, 48 hours, 3H-thy
  Relative level of incorporation of radiolabels (%): 118.1%
MJY-alpha monolayers; 1.5 uM, 48 hours, 3H-ur
  Relative level of incorporation of radiolabels (%): 103.4%
MJY-alpha monolayers; 1.5 uM, 48 hours, 35S-met
  Relative level of incorporation of radiolabels (%): 96.1%
MJY-alpha monolayers; 7.5 uM, 24 hours, 3H-thy
  Relative level of incorporation of radiolabels (%): 99.0%
MJY-alpha monolayers; 7.5 uM, 24 hours, 3H-ur
  Relative level of incorporation of radiolabels (%): 100.6%
MJY-alpha monolayers; 7.5 uM, 24 hours, 35S-met
  Relative level of incorporation of radiolabels (%): 97.2%
MJY-alpha monolayers; 7.5 uM, 48 hours, 3H-thy
  Relative level of incorporation of radiolabels (%): 83.1%
MJY-alpha monolayers; 7.5 uM, 48 hours, 3H-ur
  Relative level of incorporation of radiolabels (%): 108.6%
MJY-alpha monolayers; 7.5 uM, 48 hours, 35S-met
  Relative level of incorporation of radiolabels (%): 89.9%
MJY-alpha monolayers; 7.5 uM, second day of treatment
  depression of 3H-thymidine incorporation: 17%
MJY-alpha monolayers; 15.0 uM, 24 hours, 3H-thy
  Relative level of incorporation of radiolabels (%): 103.6%
MJY-alpha monolayers; 15.0 uM, 24 hours, 3H-ur
  Relative level of incorporation of radiolabels (%): 100.1%
MJY-alpha monolayers; 15.0 uM, 24 hours, 35S-met
  Relative level of incorporation of radiolabels (%): 82.7%
MJY-alpha monolayers; 15.0 uM, 48 hours, 3H-thy
  Relative level of incorporation of radiolabels (%): 82.9%
MJY-alpha monolayers; 15.0 uM, 48 hours, 3H-ur
  Relative level of incorporation of radiolabels (%): 80.5%
MJY-alpha monolayers; 15.0 uM, 48 hours, 35S-met
  Relative level of incorporation of radiolabels (%): 80.4%
MJY-alpha monolayers; 15 uM, second day of treatment
  reductions in levels of cell-associated radioactivity, all three precursors: 20%
L1210DDP; 24 h, read-out: T.C.D.50
  pIC50: 6.28
L1210DDP; 24 hours exposure
  concentration at which remaining L1210DDP population becomes sensitive: 4 to 15 µM
L1210DDP; doses of 1 uM, 24 hours
  share of L1210DDP cells highly susceptible: Approximately 60%
MMTV proteins; 15 min pulse labelling at end of 24 and 48 hour treatment
  levels of radiolabeled MMTV polypeptides higher than in parallel controls: 1.5 fold
MMTV proteins; 24 hr, 15 min pulse labelling
  activity at 15 µM: 181%
MMTV proteins; 48 hr, 15 min pulse labelling
  activity at 15 µM: 154%
MMTV proteins; 48 hr, 24 hr labeling
  activity at 15 µM: 125%
MMTV proteins; 24 h, 24 hr, 24 hr labeling
  activity at 15 µM: 128%
